Results taken from paper PMC6630718, “Discovery of Novel UV-Filters with Favorable Safety Profiles in the 5-Arylideneimidazolidine-2,4-dione Derivatives Group” (Molecules, 2019).

Key:
[1] = In vitro stability in mouse liver microsomes; type: in vitro ADME
How it was run: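 Compound (20 µM) with mouse liver microsomes (0.8 mg/mL), potassium phosphate pH 7.4, NADPH-regenerating system, 37 °C for 15–60 min; parent remaining by UPLC/MS, two repeats. t1/2 from ln % remaining versus time; Clint = (incubation volume/protein) × 0.693/t1/2.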

[2] = test system: estrogen-dependent MCF-7 breast cancer cell line; experiment: Estrogenic activity: MCF-7 proliferation, crystal violet assay; type: cell-based, human; settings: 5 μM, 120 h, estrogen- and phenol red-free medium
Procedure: To determine estrogenic activity of tested compounds their influence on estrogen-dependent MCF-7 breast cancer cell line proliferation was investigated. Cells were seeded into 24-wells plates in density of 40,000 per well. After 24 h incubation, cells were washed twice with PBS and fresh, estrogen- and phenol red-free medium (DMEM low-glucose; 2,5% Charcoal Stripped FBS; 2 mM glutamine; Sigma Aldrich, Darmstadt, Germany) was added. […] After 120 h incubations, cells proliferation was determined with crystal violet assay. Briefly, cells were washed with PBS and fixed with 3,7% formaldehyde. Then, crystal violet solution was added for 10 minutes. After incubation, solution was removed and cells were washed five times with PBS. Crystal violate was extracted from cells using destaining solution (1,33% citric acid, 1,09% sodium citrate in water/methanol (1:1) solution) and absorbance of the solution was determined at 570 nm (A570). Proliferation rate was determined by dividing the A570 of experimental wells by the A570 of control wells × 100%.

- t ½ ([1]; mouse liver microsomes 0.8 mg/mL, 20 µM compound, NADPH-regenerating system, 37 °C): 1.1 h
- Clint ([1]; mouse liver microsomes, calculated from t1/2): 13 µL/min/mg
Structure (SMILES): O=C(c1ccc(O)cc1O)c1ccc(O)cc1O [BP-2, benzophenone-2, reference compound]
- stimulation of MCF-7 proliferation [2]: over 60%
